Results taken from publication PMC4188250 (Biochemistry, 2014).
Read-outs that look alike come from different tables or passages of the source.

Legend:
Cytochrome P450 4A11 [1] = target: T1, Cytochrome P450 4A11 (Homo sapiens, UniProt Q02928); experiment: UV-visible spectral binding titration
T1 sequence (Q02928 5-519): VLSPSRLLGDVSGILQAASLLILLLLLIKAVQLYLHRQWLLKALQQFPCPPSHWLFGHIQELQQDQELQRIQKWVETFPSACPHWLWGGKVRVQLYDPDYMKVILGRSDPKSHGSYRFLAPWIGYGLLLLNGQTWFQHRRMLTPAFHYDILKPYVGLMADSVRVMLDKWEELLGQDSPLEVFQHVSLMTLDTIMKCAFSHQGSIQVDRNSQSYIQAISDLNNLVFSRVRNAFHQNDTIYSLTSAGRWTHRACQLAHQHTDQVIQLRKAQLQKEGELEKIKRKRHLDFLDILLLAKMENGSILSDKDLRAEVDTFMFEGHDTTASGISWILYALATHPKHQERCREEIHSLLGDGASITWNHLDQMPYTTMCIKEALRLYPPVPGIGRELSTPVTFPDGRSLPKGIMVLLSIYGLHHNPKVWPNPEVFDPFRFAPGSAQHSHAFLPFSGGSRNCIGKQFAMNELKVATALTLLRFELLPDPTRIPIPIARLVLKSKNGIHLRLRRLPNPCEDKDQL

Cytochrome P450 4A11 [2] = target: T1, Cytochrome P450 4A11; experiment: UV-visible spectral binding titration; remark: listed apart in the source

| Kd (Cytochrome P450 4A11 [2]) | SMILES | Kd (Cytochrome P450 4A11 [1]) |
| --- | --- | --- |
|  | O=C(O)CCCCCCCCCCCO [12-OH lauric acid] | 5.1 ± 2.1 µM |
| 6.7 ± 0.3 µM | CCCCCCCCCCCC(=O)O [lauric acid, dodecanoic acid] |  |
